Assay results reported in US20220267753A1, “RATIONAL THERAPEUTIC TARGETING OF ONCOGENIC IMMUNE SIGNALING STATES IN MYELOID MALIGNANCIES VIA THE UBIQUITIN CONJUGATING ENZYME UBE2N” (CHILDREN'S HOSPITAL MEDICAL CENTER, priority 2019, published 2022).
In brackets after ≈: the same amount, converted by molar mass.

Assays:
[1] = Microsomal stability (mouse liver microsomes); assay type: in vitro ADME, C57/Bl6; details: for Microsomal Stability % Remaning at T60 / CLint scaled / half-life: C57/Bl6, concentration 1 (mM), matrix 0.5 mg/ml; for CLint scaled: C57/Bl6, mouse; for CLint scaled / half-life: liver microsomes; for half-life: mouse, read-out: Microsomal Stability T ½
[2] = In vivo preclinical pharmacokinetic analysis; parameters: species or system C57BL/6 mice; details: for drug-like / pharmacokinetic properties in words: mice; for AUC(0-inf) / AUC(0-t) / Cmax / Tmax / half-life: mouse, blood, ip, C57BL/6 mice, 20 mg/kg i.p., mean; for half-life: read-out: T½ (converted)
Description: PK studies of UC-764864 and UC-764865 were performed in C57BL/6 mice (18-22 g). 10 mg/kg and 20 mg/kg UC-764864 or UC-764865 was administered through intraperitoneal (i.p.) injection. After dosing, blood samples were collected at 15 min, 30 min, 1 h, 2 h, 4 h, 8 h, 12 h, and 24 h. Samples from three animals were collected at each time point. Approximately 500 μL of blood was collected via orbital vein from each mouse, processed, and analyzed by LC-MS. Standard curves were prepared in blood covering the concentration range of 50-3,0000 ng/mL. Using the data from the standard curves, calibration curves were generated for PK tests. For in vivo toxicity studies, 25 mg/kg UC-764864, UC-764865, 10 mg/kg NSC697923 or vehicle control (methocel 0.5% tween-20 0.2%,0.1% DMSO in water) were administered in B6.SJL-Ptprca Pepcb/BoyJ mice (n=3/group) through i.p. injection. For 2 weeks the mice received 4 doses of each compound. Routine body weight and blood counts were performed. At the end of the study, tissues were harvested, placed in 10% buffered formalin, stained with hematoxylin and eosin (H&E) and examined by a pathologist.

[3] = system: MOLM-13; experiment: Cell proliferation MTS assay / cytotoxicity screen; assay type: cell-based, human; details: for cytotoxicity screen in MOLM-13 cells: 2nd screen at 2 μM, 24 hr MTS
Description: AML cell lines (5×10^3 cells/well) were seeded in 96-well plates and grown for 24 to 96 h in serum (10%)-containing medium in the presence or absence of inhibitors at the indicated concentrations. Proliferation was analyzed by means of an MTS assay using the CellTiter 96 Aqueous One Solution Cell Proliferation Assay (Promega, Madison, Wis., USA), according to the manufacturer's instructions. Data are mean with standard deviation from three independent experiments in technical triplicates. For the screening of 160 compounds from the UC library, the cell metabolic activity was assessed at 24 hours of treatment of MOLM-13 cells. Top 15 candidates were re-screened at 2 μM, and the cell metabolic activity was determined at 24 hours of treatment. In certain experiments, cell viability was determined by staining the cells with trypan blue at a 1/2 dilution and counting total number of viable cells upon treatment with UC-764864 or DMSO control. The cells were counted daily for 4 days using an automated cell counter (Countess II FL from Life Technologies). The cell proliferation in primary AMLs in FIG. 9E was performed as follows: 50,000 cells were plated in duplicate in a 96 well plate in IMDM containing 20% heat inactivated FBS plus 10 ng/ml of each SCF, IL3, IL6, TPO, and FLT3. UC-764864 was added at the indicated concentrations and cells were incubated with drug for 3 days, at which point cell viability was measured by MTS according to manufacturer's instructions.

[4] = Aqueous solubility; assay type: physicochemical; details: aqueous medium (not further specified); read-out: Aqueous Solubility, highest soluble concentration
[5] = system: THP1-Blue NF-κB reporter cells; experiment: NF-κB activation assay; assay type: cell-based, human; details: for UBE2N-dependent activation of NF-κB, reporter screen: top 14 small molecules
Description: THP1-Blue NF-κB reporter cells (Invivogen) were diluted to 100,000 cells/mL and stimulated with 1 μg/mL IL1β, 100 ng/ml Pam3CSK4 or 1 μ/m LPS. The cells were subsequently seeded into a 96 well plate at 20,000 cells per well (200 μl) and introduced to drugs in an increasing concentration. The plates were incubated at 37 C, 5% CO2 for 24 hours. The following day, QuantiBlue Reagent was warmed to 37 C in a water bath and 180 μl was added to each well of a separate, clean 96 well plate. The incubated cells were spun down, and the supernatant was taken for the assay. To perform the assay, 20 μl of supernatant from each well was pipetted into the respective 180 μl QuantiBlue Reagent well, in triplicate. The reaction was mixed and incubated for 1 to 4 hours, when a color gradient could be seen. The absorbance was read at 630 nm for a final readout.

[6] = biological target: T1, UBE2N (Homo sapiens, UniProt P61088); experiment: Cellular thermal shift assay (CETSA) in MOLM-13 cells; assay type: binding; parameters: quantification of Ts, for endogenous UBE2N; endogenous in cells; host or cells: MOLM-13; details: MOLM-13, 1 hour, heat challenge at Tagg(75); read-out: EC50 of stabilization of UBE2N (CETSA)
T1 sequence (P61088 1-152): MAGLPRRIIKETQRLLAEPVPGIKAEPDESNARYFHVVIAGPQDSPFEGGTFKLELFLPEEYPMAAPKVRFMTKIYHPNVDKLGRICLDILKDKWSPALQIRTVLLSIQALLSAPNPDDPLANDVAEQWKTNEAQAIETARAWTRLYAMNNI
Description: CETSA was performed with MOLM-13 cells cultured in RPMI medium supplemented with 10% FBS. For an initial determination of the melting profile of UBE2N, fresh cell lysate prepared in non-denaturing buffer was dispensed into 96-well PCR plate in the above medium (approx. 8000 cells/well/50 μl), then was subjected to temperature gradient (37-60° C.) for 20 min. Subsequently, centrifugation was performed at 14,000 rpm to sediment the unstable protein content. Supernatant was collected and SDS-PAGE gel was run, and immuno-detection was performed for UBE2N using corresponding primary antibody. Band intensity was quantified on LI-COR C-Digit Blot Scanner, and subsequently Tagg(50) and Tagg(75) values were calculated for UBE2N. In a subsequent run, fresh lysates of MOLM-13 cells were treated at various doses with 4-fold dilutions (10, 2.5, 0.62, 0.15, 0.04, 0.01 and 0.002 .tM) of compounds UC-764864 and UC-764865 together with DMSO control, for 1 hour. Samples were then subjected to heat challenge at Tagg(75) for 20 min, and unstable protein was removed by centrifugation step. Following an immuno-blotting step, bands of remaining stable UBE2N were quantified, normalized to loading control and plotted using GraphPad Prism software. EC50 values of engagement for both compounds with UBE2N were subsequently calculated.

| SMILES | Microsomal Stability % Remaning at T60 [1] [%] | CLint scaled [1] [mL/min/kg] | half-life [1] [min] | drug-like / pharmacokinetic properties in words [2] | AUC(0-inf) [2] [ng·h/mL] | AUC(0-t) [2] [ng·h/mL] | Cmax [2] [ng/mL] | Tmax [2] [min] | half-life [2] [min] | cytotoxicity screen in MOLM-13 cells [3] | solubility [4] [µM] | UBE2N-dependent activation of NF-κB, reporter screen [5] | EC50 [6] [nM] | metabolism in mouse liver microsomes [1] | IC50 ([3]; Homo sapiens, MOLM-13, MTS, 24 hours) [nM] | UBE2N-mediated NF-κB activity downstream of IL1R, TLR2, TLR4 ([5]; increasing concentrations, concentration dependent, equal potency) |
| --- | --- | --- | --- | --- | --- | --- | --- | --- | --- | --- | --- | --- | --- | --- | --- | --- |
| COc1ccc(C(=O)C=CSc2nc3ccc(C)cc3[nH]2)cc1 [UC-764865, 1-(4-methoxyphenyl)-3-[(6-methyl-1H-benzimidazol-2-yl)sulfanyl]prop-2-en-1-one] | 0.2 | 1100 | 4.97 | modestly improved solubility, stability, and PK properties | 413 | 346 ± 46.3 | 216 | 19.8 | 528 | cytotoxic effects | 5 (≈ 1.62 µg/mL) | inhibition of UBE2N-dependent signaling | 420 | – | – | – |
| CCc1ccc(C(=O)C=CSc2nc3ccc(C)cc3[nH]2)cc1 [UC-764864, 1-(4-ethylphenyl)-3-[(6-methyl-1H-benzimidazol-2-yl)sulfanyl]prop-2-en-1-one] | 0.02 | 1090 | 4.99 | poor pharmacokinetic (PK) properties | 461 | 436 | 446 | 15 | 124 | cytotoxic effects | 1 (≈ 0.322 µg/mL) | inhibition of UBE2N-dependent signaling | 2200 | readily metabolized | 1900 | inhibited UBE2N-mediated NF-κB activity |
